Experimental findings from patent US20250170097A1, “CATHEPSIN INHIBITORS AND USE THEREOF IN A METHOD FOR DETECTING AND TREATING RESISTANCE TO IMMUNOTHERAPY” (YISSUM RESEARCH DEVELOPMENT COMPANY OF THE HEBREW …, priority 2022, published 2025) are described below.

Data set [1] deals with B16-F10 tumors. The data set is described as follows: Resistant B16-F10 melanoma tumor-bearing mice. Format: in vivo. Conditions: combination of GB111-NH2 (30 mg/kg) and anti PD-1 (100 μg/dose), every 4 days from day 5. The method, then:
A sensitive IT treatment model, D4M tumors and, a more resistant model, IT B16-F10 tumor Cells were injected subcutaneously (SC) to the back of the mice and their growth was measured continuously by caliper. Anti PD-1 was administered intra peritoneally (IP) twice, a few days after the tumor could be palpated, and on indicated days and doses as described in the methods, changes in tumor volume were measured during the experiment (FIG. 4A).
To determine the cathepsin activity in both models, one day prior to sacrifice, GB123 (a fluorescent cathepsin activity-based probe) was administered IV, and tumors were harvested for further biochemical examination. Tumor tissue was subjected to fluorescence-activated cell sorting (FACS) analysis to determine the percentage of tumor associated macrophages (TAMs) that express high cathepsin activity.
The effect of the inhibition of cathepsin activity on the resistance to IT was examined using the resistant B16-F10 tumor-bearing mice with IT (anti-PD-1), GB111-NH2 (cathepsin inhibitor), or their combinations. The B16-F10 tumor-bearing mice were treated every 4 days, starting on day 5 after cell inoculation with anti PD-1 (100 μg/dose), GB111-NH2 (30 mg/kg) or their combinations; IT was given a day before GB111-NH2 (a group of GB111-NH2 first and IT a day later was included). […] In addition, survival plots were generated (FIG. 6B).

In data set [2] the test system is cathepsins B, L and S. In words: Cathepsin activity in lysates of patients' cells and hematological malignancy cell lines, GB123 labeling. Format: cell-based, human. Here is the method: Cell lysates from hematological malignancies patients were pretreated with vehicle, or a cathepsin inhibitor GB111-NH2 for 0.5 hour, then labeled by addition of 1 μmol/L GB123 probe for 1 hour. Equal amounts of protein were separated and visualized by scanning of the gel with a Typhoon flatbed laser scanner. Each lane was taken from a different patient. MZL-Marginal zone lymphoma, CLL-chronic lymphocytic leukemia, DLBCL-Diffuse large B-cell lymphoma.
Crude detergent lysates from cells that were pretreated with either cathepsin inhibitor GB111-NH2 or with control DMSO; vehicle for 20 minutes and then labeled by addition of 1 μmol/L GB123 probe for 1 hour. Equal amounts of protein (see Coomassie) were separated and visualized by scanning of the gel with a Typhoon flatbed laser scanner.
To verify activity dependent labeling, indicated samples were pre-incubated with GB111-NH2, a potent cathepsin inhibitor, prior to GB123 labeling. After incubation with GB123, a fluorescent scan of SDS-PAGE was done. Cathepsin activity was detected in lysates of cells from human Chronic lymphocytic leukemia (CLL) and Diffuse large B-cell lymphoma (DLBCL) patients as well as healthy population (FIG. 13).

The test system of data set [3] is blood cells isolated from peripheral blood and bone marrow of CLL patients. The data set is described as follows: Annexin V staining and cathepsin S activity in blood cells of CLL patients. Format: cell-based, human. The method, then: FIGS. 14A-14D are bar graphs and images presenting the inhibition of cathepsins induces apoptosis in OCI-Ly19 cells. (14A) Caspase-3 activation; (14B) FACS analysis of stained cells with anti-Annexin V; (14C) Mononuclear cells from CLL patients were isolated by FICOL, treated with 5 uM GB111-NH2 for 1 hour and stained with anti-Annexin V; and (14D) labeled crude detergent lysates.
The ability of GB111-NH2 to promote lymphoma cell death was examined. […] Cathepsin S activity in these cells was initially high and was reduced to 40% (+10%).

Data set [4] relates to OCI-Ly19 DLBCL cells. In words: Lymphoma cell death assay (caspase-3 activation, annexin V staining). Format: cell-based. The method, then:
OCI-Ly19 DLBCL cells were treated with GB111-NH2 for 1 hour and the cells were evaluated for caspase-3 activation and annexin V staining as indications for apoptosis.
Caspase-3 activation was assessed through the evaluation of caspase-3 enzyme activity (100 ng of protein) with the substrate Ac-DEVD-pNA (N-acetyl-Asp-Glu-Val-Asp-p-nitroaniline) in a colorimetric assay 24 hours post treatment.

The test system of data set [5] is NF-κB reporter in OCI-Ly19 cells. The data set is described as follows: NF-κB signaling assay (luciferase reporter). Format: cell-based. Particulars: 5 μM, 0.5 μg LPS, 24 h induction; potent as SC-514. Here is the method:
Cells were transfected by electroporation with NF-κB reporter plasmid. After selection, the cells were harvested, and the luciferase activities were measured and normalized. 5 μM GB111-NH2 inhibited activity of NF-κB reporter in OCI-Ly 19 cells induced by 0.5 μg LPS (24 h induction). 10 μM SC-514, a specific suppressor of NF-κB activity, was used as positive control.

Data set [6] deals with CD74 in OCI-Ly3 and OCI-Ly19. The data set is described as follows: CD74 expression by Western blot and FACS. Format: cell-based. An excerpt:
The CD74 expression was examined by Western blot (WB) and FACS in OCI-Ly3 and OCI-Ly19 treated with GB111-NH2, LPS or LPS pretreated with GB111-NH2.
In general terms: A western blot detects proteins with antibodies after separation by electrophoresis.

For data set [7], the system named is A549, HepG2, U87, and Hacat cells. The data set is described as follows: Cell viability assay (methylene blue, 72 hours). Format: cell-based. The method, then: The cells were incubated with compounds at indicated concentrations for 72 hours at 37° C. and then fixed by 2.5% glutaraldehyde for 1 hour at room temperature and stained with methylene blue. Growth was compared to vehicle-treated cells designated as 100%.

Data set [8] relates to endogenous cathepsin activity (cathepsin L/B) in lung cancer A549 cells. The data set is described as follows: Cathepsin inhibition in intact A549 cells, residual activity labeled with GB123. Format: cell-based. Particulars: for IC50: 1 hour at 37° C., FIG. 9B. Here is the method: The ability of MGB to penetrate cells and inhibit endogenous cathepsin activity was tested in lung cancer A549 cells. This model (lung cells) was chosen since corona virus is known to infect the respiratory system. Intact cells were treated with inhibitors and the residual activity was determined by GB123. Inhibition was detected on SDS-PAGE Potent inhibitors reduce the residual activity and as a result, a reduction in fluorescently labeled cathepsins is seen (FIG. 9A). The cathepsin activity was quantification and IC50 curves were plotted.

In data set [9] the target is Recombinant cathepsin B (rCatB) (Homo sapiens, UniProt P07858). The data set is described as follows: Competitive inhibition of recombinant cathepsin B, residual activity labeled with GB123, SDS PAGE. Format: biochemical. Conditions: fluorescent SDS-PAGE, FIG. 8C. The method, then:
(§1) Recombinant cathepsin B and L (rCatB and rCatL, respectively) were incubated for 45 minutes at 37° C. with 1 μl of increasing concentrations of cathepsin inhibitors (GB111-NH2 or MGB, respectively), residual cathepsin activity was labeled by addition of 1 μM of GB123 fluorescent activity-based probe for 45 minutes at 37° C., sample buffer was added for 2 min and the sample was boiled at 100° C. for 2 minutes. Equal amount of each sample was separated by a 12.5% SDS PAGE, this experiment was repeated 3 times. The gel was scanned for fluorescence by a Typhoon scanner. The bands were quantified by ImageJ software and then IC50 curves were generated from triplicate experiment by Prism-GraphPad software.

Data set [10] has as its system endogenous cathepsin activity. The data set is described as follows: Endogenous inhibition of cathepsin activity, ACE2-ab-MGB compared to MGB (FIG. 10). Format: cell-based. Particulars: FIG. 10A-10B.
Method: 2.5*10^5 cells per well (A549, U87 or HepG2), were seeded in 6 well plates one day before incubation with indicated concentrations of inhibitors (GB111-NH2 or MGB, respectively) for 1 hour at 37° C. Residual cathepsin activity was labeled by the addition of 2 μM of GB123 for 2 hours at 37° C. Sample buffer was added and samples were boiled at 100° C. for 10 min. Equal protein amounts of each sample were resolved by a 12.5% SDS PAGE. a) Gels were scanned for fluorescence by a Typhoon scanner. b) The gel bands were quantified using ImageJ software and IC50 curves were generated from triplicate experiments using Prism-GraphPad software.
For data set [11], the target named is Recombinant cathepsin L (rCatL) (Homo sapiens, UniProt P07711). In words: Competitive inhibition of recombinant cathepsin L, residual activity labeled with GB123, SDS PAGE. Format: biochemical. Particulars: fluorescent SDS-PAGE, FIG. 8C. Here is the method:
as §1

Chain of Recombinant cathepsin L (rCatL) (P07711 114-333, species assumed): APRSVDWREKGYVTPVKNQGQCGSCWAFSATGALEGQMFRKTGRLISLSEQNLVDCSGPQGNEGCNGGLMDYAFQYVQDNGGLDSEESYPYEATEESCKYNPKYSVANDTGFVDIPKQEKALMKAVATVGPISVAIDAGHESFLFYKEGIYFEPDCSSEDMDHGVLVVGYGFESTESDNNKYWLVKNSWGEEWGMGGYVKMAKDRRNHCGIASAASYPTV

As for `Cc1cccc(C)c1C(=O)OCC(=O)[C@H](CCCCN)NC(=O)[C@H](Cc1ccccc1)NC(=O)OCc1ccccc1` [GB111-NH2], the Tumor volume entry in data set [1] was “significantly smaller tumors”. In addition, in data set [2] (NF-κB reporter cells treated with LPS), the “cathepsin activity in OCI-Ly19 cells” value is “blocked cathepsin activity”. In data set [2] (patients' cells and lymphoma cell lines, pretreatment before GB123 labeling), the cathepsins activity result is “abolished cathepsins activity”. For the same compound, the “Annexin V staining” value in [3] (5 uM for 1 hour, p value 0.016) is “increased Annexin V staining”. For the same compound, the “Cathepsin S activity, reduced to” value in data set [3] (CLL patients' cells) amounted to 40%. Further, the “increase in caspase-3 activity” value in [4] (OCI-Ly19, 24 hours post treatment) came out at 4.5 fold. In data set [4] (OCI-Ly19, treated for 1 hour), the “increase in Annexin V staining” value is recorded as 2.5 fold. The “LPS-induced NF-κB transcriptional activity” value in data set [5] was “suppressed LPS-induced NF-κB transcriptional activity”. The “surface expression of CD74 (FACS)” value in data set [6] is “reduces the surface expression of CD74”. Besides, the cell viability result in data set [7] (even at low concentrations as 1 μM) is “reduced cell viability significantly”. In [8], the “potency relative to MGB” value is on record as “over 200 fold” and the IC50 – broadly, the concentration needed to halve the response being measured – was found to be 6 nM.
Regarding `Cc1cccc(C)c1C(=O)OCC(=O)[C@H](CCCCN)NC(=O)[C@H](Cc1ccccc1)NC(=O)[C@H](Cc1ccccc1)NC(=O)CCCCCN1C(=O)C=CC1=O` [MGB], the “inhibition of rCatB” value in [9] is recorded as “inhibits”. Further, the 50% inhibitory concentration (IC50) was determined as 1700 ± 600 nM in [10] and 1900 nM in data set [8]. Also, the cell viability entry in data set [7] (even at a concentration of 5 μM) is given as “safe to cells”. In addition, in [11], the “inhibition of rCatL” value is recorded as “inhibits”.
